Assays:
[1] = target: Serotonin (5-HT) receptor; experiment: Affinity against 5-hydroxytryptamine receptor was determined; assay type: protein assay, Rattus norvegicus
Rattus norvegicus = organism: Rattus norvegicus; experiment: In vitro antiserotonergic activity on rat stomach fundus strip; assay type: functional

pA2 [1]: 6.2
IC50 (Rattus norvegicus): 80 µM
Structure (SMILES): O=C([O-])c1ccc[n+](CCOC(=O)c2cc(Br)c[nH]2)c1
